Laboratory results: ChEMBL document CHEMBL1132053, “Synthesis and activity of 2-(sulfonamido)methyl-carbapenems: discovery of a novel, anti-MRSA 1,8-naphthosultam pharmacophore” (Bioorg Med Chem Lett, 1999)
Converted amounts (≈) assume the structure as drawn.

Experiments:
Enterococcus faecium = assay: Antibacterial activity against MDREFm; assay type: functional
Enterococcus faecalis = assay: Antibacterial activity against VREFs; assay type: functional
MecA = biological target: T1, MecA (Staphylococcus aureus, UniProt Q7DHH4); assay: Compound was tested for its binding affinity towards Penicillin-binding protein 2a (PBP2a) using […]-benzylpenicillin
T1 sequence (Q7DHH4 whole entry): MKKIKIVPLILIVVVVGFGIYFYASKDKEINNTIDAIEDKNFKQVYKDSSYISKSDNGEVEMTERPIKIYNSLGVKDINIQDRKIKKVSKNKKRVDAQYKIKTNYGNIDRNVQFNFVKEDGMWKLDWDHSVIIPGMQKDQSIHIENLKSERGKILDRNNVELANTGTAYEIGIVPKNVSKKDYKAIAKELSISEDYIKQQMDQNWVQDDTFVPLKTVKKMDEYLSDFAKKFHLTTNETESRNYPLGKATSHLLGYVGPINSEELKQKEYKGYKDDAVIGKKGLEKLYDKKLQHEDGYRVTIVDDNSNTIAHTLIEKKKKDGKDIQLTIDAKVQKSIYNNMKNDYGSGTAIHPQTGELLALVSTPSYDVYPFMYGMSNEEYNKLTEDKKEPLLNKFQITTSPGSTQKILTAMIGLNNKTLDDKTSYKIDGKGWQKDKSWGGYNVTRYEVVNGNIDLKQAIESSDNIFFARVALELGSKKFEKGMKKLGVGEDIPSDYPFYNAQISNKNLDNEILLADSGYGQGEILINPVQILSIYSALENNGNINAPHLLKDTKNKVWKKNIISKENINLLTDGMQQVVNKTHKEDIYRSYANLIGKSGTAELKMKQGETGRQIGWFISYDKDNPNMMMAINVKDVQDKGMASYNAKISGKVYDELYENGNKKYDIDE

Staphylococcus sp. = assay: (§1) Antibacterial activity against MRCNS; assay type: functional
Streptococcus pneumoniae = assay: Antibacterial activity against PRSP; assay type: functional
Staphylococcus aureus [1] = assay: Antibacterial activity against MRSA; assay type: functional
Staphylococcus aureus [2] = assay: Antibacterial activity against MRSA strain COL; assay type: functional
Staphylococcus aureus [3] = assay: Antibacterial activity against for MRSA strain COL; assay type: functional
Staphylococcus = assay: as §1; assay type: functional

Row | SMILES | MIC (Staphylococcus aureus [2]) [µg/mL] | MIC (Staphylococcus aureus [3]) [µg/mL] | MIC (Staphylococcus) [µg/mL] | MIC (Enterococcus faecium) [µg/mL] | MIC (Enterococcus faecalis) [µg/mL] | IC50 (MecA) [µM] | MIC (Staphylococcus sp.) [µg/mL] | MIC (Streptococcus pneumoniae) [µg/mL] | MIC (Staphylococcus aureus [1]) [µg/mL]
1 | C[C@@H](O)[C@H]1C(=O)N2C(C(=O)[O-])=C(CN3Cc4c(ccc5ccccc45)S3(=O)=O)[C@H](C)[C@H]12.[Na+] | 8 |  |  | 50.8 | 8 | 38.1 | 10.6 | 0.17 | 3.4
2 | C[C@@H](O)[C@H]1C(=O)N2C(C(=O)[O-])=C(CN3Cc4cccc5cccc(c45)S3(=O)=O)[C@H](C)[C@H]12.[Na+] | 16 |  |  | 40.3 | 8 | 46.9 | 16 | 0.12 | 8.5
3 | C[C@@H](O)[C@H]1C(=O)N2C(C(=O)[O-])=C(CN(c3ccccc3)S(=O)(=O)c3ccc4ccccc4c3)[C@H](C)[C@H]12.[Na+] | 64 |  |  |  |  |  |  |  | 
4 | C[C@@H](O)[C@H]1C(=O)N2C(C(=O)[O-])=C(CN3c4cccc5cccc(c45)N(C)S3(=O)=O)[C@H](C)[C@H]12.[Na+] | 4 |  |  | 64 | 64 | 14.8 | 7 | 1 | 1.5
5 | C[C@@H](O)[C@H]1C(=O)N2C(C(=O)[O-])=C(CN3C(=O)c4cccc5cccc(c45)C3=O)[C@H](C)[C@H]12.[Na+] | 32 |  |  | 64 | 24.3 | 3.16 | 24.3 | 1.4 | 12
6 | C[C@@H](O)[C@H]1C(=O)N2C(C(=O)[O-])=C(CN(c3ccc4ccccc4c3)S(=O)(=O)c3ccccc3)[C@H](C)[C@H]12.[Na+] | 64 |  |  |  |  |  |  |  | 
7 | C[C@@H](O)[C@H]1C(=O)N2C(C(=O)O)=C(SCCNC=N)C[C@H]12 [IMIPENEM ANHYDROUS] |  |  |  | > 64 | 8 (≈ 26.7 µM) | 628 | > 64 | 0.25 (≈ 0.835 µM) | > 40
8 | C[C@@H](O)[C@H]1C(=O)N2C(C(=O)[O-])=C(CN3C(=O)c4cccc5cccc(c45)S3(=O)=O)[C@H](C)[C@H]12.[Na+] | 8 |  |  | 32 | 8 | 5.02 | 8 | 0.25 | 4
9 | C[C@@H](O)[C@H]1C(=O)N2C(C(=O)[O-])=C(CN3C(=O)c4c(ccc5ccccc45)S3(=O)=O)[C@H](C)[C@H]12.[Na+] | 4 |  |  | 20.2 | 8 | 3.34 | 5.3 | 0.25 | 1.3
10 | C[C@@H](O)[C@H]1C(=O)N2C(C(=O)[O-])=C(CN(c3cccc4c3-c3ccccc3C4=O)S(C)(=O)=O)[C@H](C)[C@H]12.[Na+] | > 64 |  |  |  |  |  |  |  | 
11 | CN[C@H](CC(C)C)C(=O)N[C@H]1C(=O)N[C@@H](CC(N)=O)C(=O)N[C@H]2C(=O)N[C@H]3C(=O)N[C@H](C(=O)N[C@H](C(=O)O)c4cc(O)cc(O)c4-c4cc3ccc4O)[C@H](O)c3ccc(c(Cl)c3)Oc3cc2cc(c3O[C@@H]2O[C@H](CO)[C@@H](O)[C@H](O)[C@H]2O[C@H]2C[C@](C)(N)[C@H](O)[C@H](C)O2)Oc2ccc(cc2Cl)[C@H]1O [VANCOMYCIN] |  |  |  | 20.2 (≈ 13.9 µM) | > 64 |  | 1.7 (≈ 1.17 µM) | 0.35 (≈ 0.242 µM) | 0.9 (≈ 0.621 µM)

Continued, in another order:

Row | MIC (Staphylococcus aureus [2]) [µg/mL] | MIC (Staphylococcus aureus [3]) [µg/mL] | MIC (Staphylococcus) [µg/mL] | SMILES | MIC (Enterococcus faecium) [µg/mL] | MIC (Enterococcus faecalis) [µg/mL] | IC50 (MecA) [µM] | MIC (Staphylococcus sp.) [µg/mL] | MIC (Streptococcus pneumoniae) [µg/mL] | MIC (Staphylococcus aureus [1]) [µg/mL]
12 | 16 |  |  | C[C@@H](O)[C@H]1C(=O)N2C(C(=O)[O-])=C(CN3c4ccccc4CS3(=O)=O)[C@H](C)[C@H]12.[Na+] |  |  |  |  |  | 
13 | 8 |  |  | C[C@@H](O)[C@H]1C(=O)N2C(C(=O)[O-])=C(CN3c4ccccc4-c4ccccc4S3(=O)=O)[C@H](C)[C@H]12.[Na+] |  |  |  |  |  | 
14 | 64 |  |  | C[C@@H](O)[C@H]1C(=O)N2C(C(=O)[O-])=C(CN(c3ccccc3)S(=O)(=O)c3ccccc3)[C@H](C)[C@H]12.[Na+] |  |  |  |  |  | 
15 |  | > 64 |  | C[C@@H](O)[C@H]1C(=O)N2C(C(=O)[O-])=C(CN(c3cccc4ccccc34)S(C)(=O)=O)[C@H](C)[C@H]12.[Na+] |  |  |  |  |  | 
16 | > 64 |  |  | C[C@@H](O)[C@H]1C(=O)N2C(C(=O)[O-])=C(CN(c3ccc4ccccc4c3)S(C)(=O)=O)[C@H](C)[C@H]12.[Na+] |  |  |  |  |  | 
17 | 32 |  | 21.1 | C[C@@H](O)[C@H]1C(=O)N2C(C(=O)[O-])=C(CN3C(=O)c4cccc5cccc3c45)[C@H](C)[C@H]12.[Na+] | 64 | 64 |  |  | 4 | 12
18 | 64 |  |  | C[C@@H](O)[C@H]1C(=O)N2C(C(=O)[O-])=C(CN3Cc4ccccc4S3(=O)=O)[C@H](C)[C@H]12.[Na+] |  |  |  |  |  | 
19 | 2 |  |  | C[C@@H](O)[C@H]1C(=O)N2C(C(=O)[O-])=C(CN3c4cccc5cccc(c45)S3(=O)=O)[C@H](C)[C@H]12.[Na+] |  |  |  |  |  | 
20 | 16 |  |  | C[C@@H](O)[C@H]1C(=O)N2C(C(=O)[O-])=C(CN3C(=O)c4ccccc4S3(=O)=O)[C@H](C)[C@H]12.[Na+] |  |  |  |  |  | 
